Columns and labels:
[1] = target: T1, Poly [ADP-ribose] polymerase 1 (Homo sapiens, UniProt P09874); assay: Inhibition of PARP1 (unknown origin) incubated for 1 hr by ELISA analysis
CAPAN-1 [2] = assay: Antiproliferative activity against human CAPAN-1 BRCA2-/- cells assessed as inhibition of cell growth incubated for 7 days by CCK-8 assay; assay type: functional, cell-based; conditions: CAPAN-1, 168 h
MDA-MB-436 = assay: Antiproliferative activity against human MDA-MB-436 BRCA1-/- cells assessed as inhibition of cell growth incubated for 7 days by CCK-8 assay; assay type: functional, cell-based; conditions: MDA-MB-436, 168 h
[3] = Cytotoxicity against Chinese hamster V-C8 BRCA2-/- cells assessed as reduction in cell viability; assay type: toxicity, cell-based, Cricetulus griseus
[4] = tested on: Olaparib-resistant CAPAN-1; assay: Antiproliferative activity against human Olaparib-resistant CAPAN-1 cells assessed as inhibition of cell growth incubated for 7 days by CCK-8 assay; assay type: functional, cell-based; conditions: Olaparib-resistant CAPAN-1, 168 h
[5] = Antiproliferative activity against human Talazoparib-resistant CAPAN-1 cells assessed as inhibition of cell growth incubated for 7 days by CCK-8 assay; assay type: functional, cell-based; conditions: CAPAN-1, 168 h
[6] = Selectivity ratio of IC50 for antiproliferative activity against human Simmiparib-resistant CAPAN-1 cells to IC50 for antiproliferative activity against human CAPAN-1 BRCA2-/- cells; assay type: functional
[7] = Selectivity ratio of IC50 for antiproliferative activity against human Talazoparib-resistant CAPAN-1 cells to IC50 for antiproliferative activity against human CAPAN-1 BRCA2-/- cells; assay type: functional
[8] = Antiproliferative activity against human Simmiparib-resistant CAPAN-1 cells assessed as inhibition of cell growth incubated for 7 days by CCK-8 assay; assay type: functional, cell-based; conditions: CAPAN-1, 168 h
[9] = Selectivity ratio of IC50 for antiproliferative activity against human Olaparib-resistant CAPAN-1 cells to IC50 for antiproliferative activity against human CAPAN-1 BRCA2-/- cells; assay type: functional
[10] = target: Voltage-gated inwardly rectifying potassium channel KCNH2 (Homo sapiens, UniProt Q12809); assay: Inhibition of hERG; assay type: toxicity
Sequence of Voltage-gated inwardly rectifying potassium channel KCNH2 (Q12809 whole entry): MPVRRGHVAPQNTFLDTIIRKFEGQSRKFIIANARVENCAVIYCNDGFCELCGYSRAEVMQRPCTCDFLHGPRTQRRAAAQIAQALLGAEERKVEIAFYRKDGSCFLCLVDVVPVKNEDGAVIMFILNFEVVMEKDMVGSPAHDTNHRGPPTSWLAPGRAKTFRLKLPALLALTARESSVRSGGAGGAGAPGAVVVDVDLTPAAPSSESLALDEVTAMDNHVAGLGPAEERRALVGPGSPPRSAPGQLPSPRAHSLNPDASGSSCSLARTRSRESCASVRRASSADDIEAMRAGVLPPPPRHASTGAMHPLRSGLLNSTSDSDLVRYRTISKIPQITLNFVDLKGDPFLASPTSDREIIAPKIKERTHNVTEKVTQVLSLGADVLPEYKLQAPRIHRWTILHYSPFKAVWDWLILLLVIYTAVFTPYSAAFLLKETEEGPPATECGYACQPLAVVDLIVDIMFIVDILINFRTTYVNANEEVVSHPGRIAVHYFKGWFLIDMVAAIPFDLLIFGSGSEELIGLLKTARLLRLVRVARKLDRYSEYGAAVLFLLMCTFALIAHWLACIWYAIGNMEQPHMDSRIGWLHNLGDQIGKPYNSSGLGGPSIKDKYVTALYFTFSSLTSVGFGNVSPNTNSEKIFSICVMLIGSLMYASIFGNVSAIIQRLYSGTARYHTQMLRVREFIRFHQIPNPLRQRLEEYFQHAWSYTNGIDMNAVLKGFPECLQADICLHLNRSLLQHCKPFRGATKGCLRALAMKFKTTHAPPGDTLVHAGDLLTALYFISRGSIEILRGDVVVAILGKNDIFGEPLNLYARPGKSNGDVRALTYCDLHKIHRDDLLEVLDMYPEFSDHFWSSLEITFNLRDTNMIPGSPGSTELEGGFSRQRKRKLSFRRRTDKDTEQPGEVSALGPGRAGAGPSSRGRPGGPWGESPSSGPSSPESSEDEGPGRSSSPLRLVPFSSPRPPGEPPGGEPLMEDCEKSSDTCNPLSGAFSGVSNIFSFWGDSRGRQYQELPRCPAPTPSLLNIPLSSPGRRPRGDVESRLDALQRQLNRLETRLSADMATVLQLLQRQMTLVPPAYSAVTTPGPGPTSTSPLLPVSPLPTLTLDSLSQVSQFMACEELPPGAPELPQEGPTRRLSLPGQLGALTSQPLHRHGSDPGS

[11] = target: T1, Poly [ADP-ribose] polymerase 1; assay: Inhibition of PARP1 (unknown origin)
CAPAN-1 [12] = assay: Induction of apoptosis in human CAPAN-1 cells assessed as early apoptotic cells at 1 uM incubated for 48 hrs by Annexin-V/PI staining based flow cytometry analysis (reference value: 10.1%); assay type: functional
CAPAN-1 [13] = assay: Induction of apoptosis in human CAPAN-1 cells assessed as late apoptotic cells at 1 uM incubated for 48 hrs by Annexin-V/PI staining based flow cytometry analysis (reference value: 4.95%); assay type: functional
[14] = tested on: Olaparib-resistant CAPAN-1; assay: Induction of apoptosis in human Olaparib-resistant CAPAN-1 cells assessed as late apoptotic cells at 1 uM incubated for 48 hrs by Annexin-V/PI staining based flow cytometry analysis (reference value: 3.67%); assay type: functional
[15] = tested on: Olaparib-resistant CAPAN-1; assay: Induction of apoptosis in human Olaparib-resistant CAPAN-1 cells assessed as early apoptotic cells at 1 uM incubated for 48 hrs by Annexin-V/PI staining based flow cytometry analysis (reference value: 8.50%); assay type: functional

T1 sequence (P09874 whole entry): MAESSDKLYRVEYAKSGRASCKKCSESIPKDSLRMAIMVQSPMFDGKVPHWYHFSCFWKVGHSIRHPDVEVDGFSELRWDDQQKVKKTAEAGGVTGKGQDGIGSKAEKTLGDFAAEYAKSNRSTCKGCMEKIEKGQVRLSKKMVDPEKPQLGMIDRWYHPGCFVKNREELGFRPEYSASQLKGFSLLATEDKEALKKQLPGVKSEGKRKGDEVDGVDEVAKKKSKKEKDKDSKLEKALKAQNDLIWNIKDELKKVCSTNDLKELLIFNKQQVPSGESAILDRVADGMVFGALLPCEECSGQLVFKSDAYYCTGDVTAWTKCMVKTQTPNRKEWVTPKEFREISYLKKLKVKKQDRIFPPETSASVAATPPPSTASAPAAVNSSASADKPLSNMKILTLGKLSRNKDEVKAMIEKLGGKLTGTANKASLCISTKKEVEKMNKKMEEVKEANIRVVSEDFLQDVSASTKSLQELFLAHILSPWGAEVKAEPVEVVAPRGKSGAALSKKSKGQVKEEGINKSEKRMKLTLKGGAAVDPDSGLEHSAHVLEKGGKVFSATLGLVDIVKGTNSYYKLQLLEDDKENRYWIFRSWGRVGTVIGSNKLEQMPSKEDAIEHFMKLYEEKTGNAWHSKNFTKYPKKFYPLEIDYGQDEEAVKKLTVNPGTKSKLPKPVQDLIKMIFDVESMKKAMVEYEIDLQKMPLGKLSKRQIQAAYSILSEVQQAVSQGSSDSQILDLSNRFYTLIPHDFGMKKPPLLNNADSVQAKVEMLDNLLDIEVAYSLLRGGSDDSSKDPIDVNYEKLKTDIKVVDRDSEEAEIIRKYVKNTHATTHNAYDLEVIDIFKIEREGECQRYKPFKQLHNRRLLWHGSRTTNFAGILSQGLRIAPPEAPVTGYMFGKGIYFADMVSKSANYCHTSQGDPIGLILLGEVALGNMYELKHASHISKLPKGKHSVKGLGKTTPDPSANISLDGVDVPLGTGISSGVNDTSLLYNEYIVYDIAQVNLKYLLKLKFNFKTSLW

For `CC1CN(C(=O)c2cc(Cc3n[nH]c(=O)c4ccccc34)ccc2F)Cc2nncn21` (stereo unspecified), the IC50 [1] was 9.4 nM.

For `CC1CN(C(=O)c2cc(Cc3n[nH]c(=O)c4ccccc34)ccc2F)Cc2cnnn21` (stereo unspecified), the IC50 [1] was > 1000 nM.

Molecule `CC1CN(C(=O)c2cc(Cc3n[nH]c(=O)c4ccccc34)ccc2F)Cc2nnc(CO[Si](C)(C)C(C)(C)C)n21` (stereo unspecified) has an IC50 (CAPAN-1 [2]) of 54.7 nM.

`CC1CN(C(=O)c2cc(Cc3n[nH]c(=O)c4ccccc34)ccc2F)Cc2nnc(C(F)F)n21` (stereo unspecified) gave an IC50 (MDA-MB-436) of 2.9 nM, an IC50 (CAPAN-1 [2]) of 29.5 nM and an IC50 [1] of 4.3 nM.

`O=C1NCC2c3c(cccc31)CCN2C(=O)c1cc(Cc2n[nH]c(=O)c3ccccc23)ccc1F` (stereo unspecified) showed a CC50 [3] of 96 nM.

Work on `CC1CN(C(=O)c2cc(COc3ccccc3C(N)=O)ccc2F)Cc2nnc(-c3ccccn3)n21` (stereo unspecified) yielded an IC50 [1] of 230 nM.

`CC1CN(C(=O)c2cc(Cn3c(=O)[nH]c(=O)c4ccccc43)ccc2F)Cc2nnc(-c3ccccn3)n21` (stereo unspecified) showed an IC50 [1] of 4.6 nM.

In the case of `Cn1ncnc1[C@H]1c2n[nH]c(=O)c3cc(F)cc(c23)N[C@@H]1c1ccc(F)cc1` [TALAZOPARIB], the IC50 [4] is reported as 367 nM, the IC50 [5] is reported as 182 nM and the “Ratio IC50” value [6] is reported as 1749. The “Ratio IC50” value [7] was 666, the IC50 [8] was 478 nM and the “Ratio IC50” value [9] was 1344.

Work on `CC(C)c1nnc2n1C(C)CN(C(=O)c1cc(Cc3n[nH]c(=O)c4ccccc34)ccc1F)C2` (stereo unspecified) yielded an IC50 [1] of 4.1 nM.

With `CC1CN(C(=O)c2cc(Cc3n[nH]c(=O)c4ccccc34)ccc2F)Cc2nnc(CF)n21` (stereo unspecified) the IC50 [1] was 11.9 nM.

In the case of `CC1CN(C(=O)c2cc(Cc3n[nH]c(=O)c4ccccc34)ccc2F)Cc2nnc(C(F)(F)C(F)(F)F)n21` (stereo unspecified), the IC50 [4] is reported as 1770 nM, the IC50 [10] is reported as 40000 nM and the IC50 [5] is reported as 272 nM. For the same molecule, the “Ratio IC50” value [6] was 509, the IC50 (MDA-MB-436) was 1.9 nM and the IC50 (CAPAN-1 [2]) was 2.5 nM. The “Ratio IC50” value [7] was 91, the IC50 [1] was 4.1 nM and the IC50 [8] was 1530 nM. The “Ratio IC50” value [9] was 590.

`CC1CN(C(=O)c2cc(Cc3n[nH]c(=O)c4ccccc34)ccc2F)Cc2nnc(C3CC3)n21` (stereo unspecified) gave an IC50 (MDA-MB-436) of 7.5 nM, an IC50 (CAPAN-1 [2]) of 60.7 nM and an IC50 [1] of 3.2 nM.

With `CC1CN(C(=O)c2cc(Cc3n[nH]c(=O)c4ccccc34)ccc2F)Cc2nnc(-c3ccccn3)n21` (stereo unspecified) the IC50 [4] was 292 nM, the IC50 [10] was 17400 nM and the IC50 [5] was 97 nM. The “Ratio IC50” value [6] was 247, the IC50 (MDA-MB-436) was < 0.3 nM and the IC50 (CAPAN-1 [2]) was 1 nM. The “Ratio IC50” value [7] was 55, the IC50 [1] was 2 nM and the IC50 [8] was 437 nM. For the same molecule, the “Ratio IC50” value [9] was 165.

For `CC1CN(C(=O)c2cc(Cc3n[nH]c(=O)c4ccccc34)ccc2F)Cc2nnc(C(F)(F)F)n21` (stereo unspecified), the IC50 [4] was 20 nM, the CC50 [3] was 42 nM and the IC50 [5] was 20 nM. It also gave an IC50 (MDA-MB-436) of 1.3 nM and an IC50 [8] of 20 nM.

With `COc1ccc2c(c1)C(C)N(C(=O)c1cc(Cc3n[nH]c(=O)c4ccccc34)ccc1F)CC2` (stereo unspecified) the IC50 [1] was 108 nM.

For `O=C1CC2c3c(cccc31)CCN2C(=O)c1cc(Cc2n[nH]c(=O)c3ccccc23)ccc1F` (stereo unspecified), the CC50 [3] was 4.53 nM and the IC50 [11] was 3.46 nM.

Molecule `CC1CN(C(=O)c2cc(Cc3ccc(=O)[nH]n3)ccc2F)Cc2nnc(-c3ccccn3)n21` (stereo unspecified) has an IC50 [1] of 947 nM.

In the case of `CC1CN(C(=O)c2cc(Cc3n[nH]c(=O)c4ccccc34)ccc2F)Cc2nnc(-c3cncs3)n21` (stereo unspecified), the IC50 (CAPAN-1 [2]) is reported as 21.6 nM and the IC50 [1] is reported as 5.8 nM.

Work on `CC1CN(C(=O)c2cc(Cc3n[nH]c(=O)c4ccccc34)ccc2F)Cc2nnc(-c3ncc[nH]3)n21` (stereo unspecified) yielded an IC50 (MDA-MB-436) of 1.9 nM, an IC50 (CAPAN-1 [2]) of 13.7 nM and an IC50 [1] of 3.2 nM.

Molecule `CC1CN(C(=O)c2cc(Cc3n[nH]c(=O)c4ccccc34)ccc2F)Cc2nnc(C(O)CO)n21` (stereo unspecified) has an IC50 [1] of 21 nM.

`CC1CN(C(=O)c2cc(Cc3n[nH]c(=O)c4ccccc34)ccc2F)Cc2nnc(C(F)(F)Cl)n21` (stereo unspecified) showed an IC50 (MDA-MB-436) of 0.3 nM, an IC50 (CAPAN-1 [2]) of 3.4 nM and an IC50 [1] of 3.4 nM.

With `CC1c2cc(F)ccc2CCN1C(=O)c1cc(Cc2n[nH]c(=O)c3ccccc23)ccc1F` (stereo unspecified) the IC50 [1] was 70.7 nM.

In the case of `CC1CN(C(=O)c2cc(Cc3n[nH]c(=O)c4ccccc34)ccc2F)Cc2nnc(-c3nccn3C)n21` (stereo unspecified), the IC50 [1] is reported as 7.7 nM.

With `CC1CN(C(=O)c2cc(Cc3n[nH]c(=O)c4ccccc34)ccc2F)Cc2nnc(CCl)n21` (stereo unspecified) the IC50 (MDA-MB-436) was 2.7 nM and the IC50 [1] was < 0.3 nM.

With `CC1CN(C(=O)c2cc(Cc3n[nH]c(=O)c4ccccc34)ccc2F)Cc2nnc(-c3cnccn3)n21` (stereo unspecified) the IC50 (MDA-MB-436) was < 0.3 nM, the IC50 (CAPAN-1 [2]) was 7.3 nM and the IC50 [1] was 4 nM.

With `CC1CN(C(=O)c2cc(Cc3n[nH]c(=O)c4ccccc34)ccc2F)Cc2nnc(C3COC(C)(C)O3)n21` (stereo unspecified) the IC50 [1] was 25 nM.

Molecule `CC1CN(C(=O)c2cc(Cc3n[nH]c(=O)c4ccccc34)ccc2F)Cc2nnc(CN(C)C)n21` (stereo unspecified) has an IC50 (CAPAN-1 [2]) of 1430 nM and an IC50 [1] of 17.6 nM.

Work on `CC1CN(C(=O)c2cc(Cc3n[nH]c(=O)c4ccccc34)ccc2F)Cc2nnc(-c3ccsc3)n21` (stereo unspecified) yielded an IC50 (CAPAN-1 [2]) of 7.3 nM and an IC50 [1] of 2 nM.

In the case of `Cc1cc(Cc2ccc(F)c(C(=O)N3Cc4nnc(-c5ccccn5)n4C(C)C3)c2)n[nH]c1=O` (stereo unspecified), the IC50 [1] is reported as > 1000 nM.

With `O=C(c1cc(Cc2n[nH]c(=O)c3ccccc23)ccc1F)N1CCN(C(=O)C2CC2)CC1` [OLAPARIB] the IC50 [4] was 40 nM, the Activity (CAPAN-1 [12]) was 16.2% and the IC50 [5] was 11500 nM. It also gave an Activity (CAPAN-1 [13]) of 4.5%, an IC50 (MDA-MB-436) of 43.2 nM and an Activity [14] of 4.02%. It also gave an IC50 [8] of 27600 nM and an Activity [15] of 11.5%.

`CC1CN(C(=O)c2cc(Cc3n[nH]c(=O)c4ccccc34)ccc2F)Cc2nnc(-c3c[nH]cn3)n21` (stereo unspecified) showed an IC50 [1] of 13.1 nM.

With `Cc1c(Cc2ccc(F)c(C(=O)N3Cc4nnc(-c5ccccn5)n4C(C)C3)c2)n[nH]c(=O)c1C` (stereo unspecified) the IC50 [1] was 61.3 nM.

With `CC1CN(C(=O)c2cc(Cc3n[nH]c(=O)c4ccccc34)ccc2F)Cc2nnc(-c3ccco3)n21` (stereo unspecified) the IC50 (MDA-MB-436) was < 0.3 nM and the IC50 [1] was 1.7 nM.

`CC1CN(C(=O)c2cc(Cc3n[nH]c(=O)c4ccccc34)ccc2F)Cc2nnc(-c3cccs3)n21` (stereo unspecified) showed an IC50 [4] of 4660 nM, an IC50 [10] of 4100 nM and an IC50 [5] of 730 nM. For the same molecule, the “Ratio IC50” value [6] was 507, the IC50 (MDA-MB-436) was 1.1 nM and the “Ratio IC50” value [7] was 112. The IC50 [1] was 0.7 nM, the IC50 [8] was 3290 nM and the “Ratio IC50” value [9] was 717.

In the case of `CC1CN(C(=O)c2cc(Cc3n[nH]c(=O)c4ccccc34)ccc2F)Cc2nnc(-c3cnn(C)c3)n21` (stereo unspecified), the IC50 (MDA-MB-436) is reported as 21.1 nM, the IC50 (CAPAN-1 [2]) is reported as 218 nM and the IC50 [1] is reported as 2.8 nM.

Molecule `CC1CN(C(=O)c2cc(Cc3n[nH]c(=O)c4ccccc34)ccc2F)Cc2nnc(CO)n21` (stereo unspecified) has an IC50 [1] of 9.2 nM.

In the case of `CC1Cn2nncc2CN1C(=O)c1cc(Cc2n[nH]c(=O)c3ccccc23)ccc1F` (stereo unspecified), the IC50 [1] is reported as > 1000 nM.

For `CC1(C)Cn2nncc2CN1C(=O)c1cc(Cc2n[nH]c(=O)c3ccccc23)ccc1F`, the IC50 [1] was > 1000 nM.

For `O=C(c1cc(Cc2n[nH]c(=O)c3ccccc23)ccc1F)N1CCc2ccccc2C1C1CC1` (stereo unspecified), the IC50 [1] was 182 nM.

For `CC1(C)CN(C(=O)c2cc(Cc3n[nH]c(=O)c4ccccc34)ccc2F)Cc2cnnn21`, the IC50 [1] was > 1000 nM.

`CC1c2ccccc2CCN1C(=O)c1cc(Cc2n[nH]c(=O)c3ccccc23)ccc1F` (stereo unspecified) gave an IC50 [1] of 42.8 nM.
